# Values of other authors as cited in patent publication US7803392B2, “pH-Sensitive mucoadhesive film-forming gels and wax-film composites suitable for topical and mucosal delivery of molecules” (University of Kentucky Research Foundation, priority 2000, dated 2010).
# Experiments:
# [1] = buccal 10 mg midazolam per 2 mL
# [2] = buccal administration of 5 mg midazolam
# [3] = subcutaneous injection twice a day for 8 days, patients
compound,measurement,setting,value
"Oc1cc(Cl)ccc1Oc1ccc(Cl)cc1Cl [Triclosan, 2,4,4′-Trichloro 2′-hydroxy-diphenyl-ether 5-chloro 2-(2,4-dichlorophenoxy)-phenol]",pKa,,7.9
same,solubility in alkaline solutions,alkaline solutions,readily soluble
same,solubility in ethanol,ethanol,soluble
same,solubility in polyethylene glycol 400,polyethylene glycol 400,soluble
same,solubility in water,water,insoluble
Cc1ncc2n1-c1ccc(Cl)cc1C(c1ccccc1F)=NC2 [midazolam],average time to stop seizures after administration,[1]; children,6 min
same,seizures stopped,[1]; children (30/40 seizures),75%
same,maximum plasma concentration,[2],55.9 ng/mL
same,mean bioavailability,[2],74.5%
same,time of maximum plasma concentration,[2],30 min
Hirudin,lower overall rate of deep-vein thrombosis than low molecular weight heparin,[3],~30%
